# Results reported in patent US11400058B2, “Intravenous formulations of coenzyme Q10 (CoQ10) and methods of use thereof” (Berg LLC, priority 2010, dated 2022).
# Marks after values point to notes of the source that are not given here.
# Experiment: 4-week repeat-dose toxicology study in rats with 2-week recovery (Study 20000328)
# [1] = 125 mg/kg M, end of dosing, animals affected
# [2] = 125 mg/kg M, end of dosing, animals of 10
# [3] = 125 mg/kg M, end of recovery, animals of 5
# [4] = 250 mg/kg F, end of dosing, animals of 10
smiles,measurement,setting,value
"COC1=C(OC)C(=O)C(C/C=C(\C)CC/C=C(\C)CC/C=C(\C)CC/C=C(\C)CC/C=C(\C)CC/C=C(\C)CC/C=C(\C)CC/C=C(\C)CC/C=C(\C)CCC=C(C)C)=C(C)C1=O [CoQ10, Coenzyme Q10]",Erythrocytes,"125 mg/kg M, end of dosing",7.59* 10^6/cmm
same,"Food Consumption, percent difference from controls","125 mg/kg M, end of dosing",−9.2* %
same,GGT,"125 mg/kg M, end of dosing",0.09 IU/L
same,Hematocrit,"125 mg/kg M, end of dosing",41.6* %
same,Hemoglobin,"125 mg/kg M, end of dosing",14.3 g/dL
same,Leukocytes,"125 mg/kg M, end of dosing",11.03 10^3/cmm
same,"Liver weight (absolute), percent difference from controls","125 mg/kg M, end of dosing",−7.2%
same,Lymphocytes,"125 mg/kg M, end of dosing",8.70* 10^3/cmm
same,Neutrophils,"125 mg/kg M, end of dosing",1.71 10^3/cmm
same,"Spleen weight (absolute), percent difference from controls","125 mg/kg M, end of dosing",−23.4%
same,Injection Site Mononuclear Cell Infiltration,[1],1
same,"Injection Site Mononuclear Cell Infiltration, Marked",[1],1
same,"Injection Site Mononuclear Cell Infiltration, Mild",[1],0
same,"Injection Site Mononuclear Cell Infiltration, Minimal",[1],0
same,"Injection Site Mononuclear Cell Infiltration, Moderate",[1],0
same,"Bone Marrow, Sternum Hyperplasia",[2],2
same,"Bone Marrow, Sternum Hyperplasia, Mild",[2],0
same,"Bone Marrow, Sternum Hyperplasia, Minimal",[2],2
same,Gross Pathology: Enlarged Pancreatic Lymph Nodes,[2],1
same,Gross Pathology: Pale Adrenal,[2],0
same,Gross Pathology: Pale Liver,[2],9
same,Gross Pathology: Pale Lymph Nodes,[2],4
same,Gross Pathology: Pale Pituitary,[2],0
same,Gross Pathology: Pale SQ Skin,[2],1
same,Liver Focal Necrosis,[2],0
same,"Liver Focal Necrosis, Minimal",[2],0
same,Liver Histiocytic Infiltration,[2],6
same,"Liver Histiocytic Infiltration, Mild",[2],3
same,"Liver Histiocytic Infiltration, Minimal",[2],3
same,"Liver Histiocytic Infiltration, Moderate",[2],0
same,Liver Vacuolation,[2],8
same,"Liver Vacuolation, Mild",[2],4
same,"Liver Vacuolation, Minimal",[2],4
same,"Lymph Node, Man. Histiocytic Infiltration",[2],7
same,"Lymph Node, Man. Histiocytic Infiltration, Mild",[2],4
same,"Lymph Node, Man. Histiocytic Infiltration, Minimal",[2],3
same,"Lymph Node, Man. Histiocytic Infiltration, Moderate",[2],0
same,"Lymph Node, Mes. Histiocytic Infiltration",[2],10
same,"Lymph Node, Mes. Histiocytic Infiltration, Mild",[2],6
same,"Lymph Node, Mes. Histiocytic Infiltration, Minimal",[2],4
same,"Lymph Node, Mes. Histiocytic Infiltration, Moderate",[2],0
same,"Skin, Dermis Histiocytic Infiltration",[2],1
same,"Skin, Dermis Histiocytic Infiltration, Marked",[2],1
same,"Skin, Dermis Histiocytic Infiltration, Mild",[2],0
same,"Skin, Dermis Histiocytic Infiltration, Moderate",[2],0
same,"Skin, SQ Histiocytic Infiltration",[2],0
same,"Skin, SQ Histiocytic Infiltration, Mild",[2],0
same,Spleen Histiocytic Infiltration,[2],8
same,"Spleen Histiocytic Infiltration, Marked",[2],0
same,"Spleen Histiocytic Infiltration, Mild",[2],5
same,"Spleen Histiocytic Infiltration, Moderate",[2],3
same,ALT,"125 mg/kg M, end of recovery",27 IU/L
same,APPT,"125 mg/kg M, end of recovery",15.9* seconds
same,AST,"125 mg/kg M, end of recovery",94 IU/L
same,"Body Weight, percent difference from controls","125 mg/kg M, end of recovery",−2.2%
same,"Food Consumption, percent difference from controls","125 mg/kg M, end of recovery",+1.2%
same,GGT,"125 mg/kg M, end of recovery",0.00 IU/L
same,"Liver weight (absolute), percent difference from controls","125 mg/kg M, end of recovery",−2.5%
same,"Spleen weight (absolute), percent difference from controls","125 mg/kg M, end of recovery",+5.9%
same,Adrenal Gland Vacuolation,[3],5
same,"Adrenal Gland Vacuolation, Marked",[3],0
same,"Adrenal Gland Vacuolation, Mild",[3],2
same,"Adrenal Gland Vacuolation, Minimal",[3],0
same,"Adrenal Gland Vacuolation, Moderate",[3],3
same,Gross Pathology: Enlarged Spleen,[3],1
same,Gross Pathology: Pale Iliac Lymph Node,[3],2
same,Gross Pathology: Pale Liver,[3],5
same,Gross Pathology: Pale Pancreatic Lymph Node,[3],2
same,Liver Focal Necrosis,[3],3
same,"Liver Focal Necrosis, Mild",[3],1
same,"Liver Focal Necrosis, Minimal",[3],2
same,Liver Histiocytic Infiltration,[3],5
same,"Liver Histiocytic Infiltration, Mild",[3],1
same,"Liver Histiocytic Infiltration, Minimal",[3],4
same,"Liver Histiocytic Infiltration, Moderate",[3],0
same,Liver Multifocal Necrosis,[3],0
same,"Liver Multifocal Necrosis, Mild",[3],0
same,"Liver Multifocal Necrosis, Moderate",[3],0
same,Liver Vacuolation,[3],5
same,"Liver Vacuolation, Mild",[3],4
same,"Liver Vacuolation, Minimal",[3],1
same,"Liver Vacuolation, Moderate",[3],0
same,"Lymph Node, Man. Histiocytic Infiltration",[3],5
same,"Lymph Node, Man. Histiocytic Infiltration, Mild",[3],2
same,"Lymph Node, Man. Histiocytic Infiltration, Minimal",[3],3
same,"Lymph Node, Man. Histiocytic Infiltration, Moderate",[3],0
same,"Lymph Node, Mes. Histiocytic Infiltration",[3],5
same,"Lymph Node, Mes. Histiocytic Infiltration, Mild",[3],1
same,"Lymph Node, Mes. Histiocytic Infiltration, Minimal",[3],3
same,Spleen Histiocytic Infiltration,[3],3
same,"Spleen Histiocytic Infiltration, Marked",[3],0
same,"Spleen Histiocytic Infiltration, Mild",[3],1
same,"Spleen Histiocytic Infiltration, Minimal",[3],2
same,"Spleen Histiocytic Infiltration, Moderate",[3],0
same,Died or Sacrificed Moribund,"250 mg/kg F, animals of 15",0
same,ALT,"250 mg/kg F, end of dosing",22 IU/L
same,APPT,"250 mg/kg F, end of dosing",14.5* seconds
same,AST,"250 mg/kg F, end of dosing",88 IU/L
same,"Body Weight, percent difference from controls","250 mg/kg F, end of dosing",−8.9* %
same,Eosinophils,"250 mg/kg F, end of dosing",0.10 10^3/cmm
same,Erythrocytes,"250 mg/kg F, end of dosing",6.12 10^6/cmm
same,"Food Consumption, percent difference from controls","250 mg/kg F, end of dosing",−18.3* %
same,GGT,"250 mg/kg F, end of dosing",0.25 IU/L
same,Hematocrit,"250 mg/kg F, end of dosing",39.2* %
same,Hemoglobin,"250 mg/kg F, end of dosing",13.2 g/dL
same,Leukocytes,"250 mg/kg F, end of dosing",13.15* 10^3/cmm
same,"Liver weight (absolute), percent difference from controls","250 mg/kg F, end of dosing",+14.5* %
same,Lymphocytes,"250 mg/kg F, end of dosing",10.50* 10^3/cmm
same,Neutrophils,"250 mg/kg F, end of dosing",1.97* 10^3/cmm
same,"Spleen weight (absolute), percent difference from controls","250 mg/kg F, end of dosing",+51.0* %
same,Adrenal Gland Vacuolation,[4],10
same,"Adrenal Gland Vacuolation, Mild",[4],3
same,"Adrenal Gland Vacuolation, Minimal",[4],0
same,"Adrenal Gland Vacuolation, Moderate",[4],7
same,"Bone Marrow, Sternum Hyperplasia",[4],0
same,"Bone Marrow, Sternum Hyperplasia, Mild",[4],0
same,"Bone Marrow, Sternum Hyperplasia, Minimal",[4],0
same,Gross Pathology: Enlarged Pancreatic Lymph Nodes,[4],1
same,Gross Pathology: Pale Adrenal,[4],2
same,Gross Pathology: Pale Liver,[4],10
same,Gross Pathology: Pale Lymph Nodes,[4],7
same,Gross Pathology: Pale Ovaries,[4],9
same,Gross Pathology: Pale Pituitary,[4],0
same,Gross Pathology: Pale SQ Skin,[4],4
same,Injection Site Mononuclear Cell Infiltration,[4],10
same,"Injection Site Mononuclear Cell Infiltration, Marked",[4],2
same,"Injection Site Mononuclear Cell Infiltration, Mild",[4],1
same,"Injection Site Mononuclear Cell Infiltration, Minimal",[4],0
same,"Injection Site Mononuclear Cell Infiltration, Moderate",[4],7
same,Liver Focal Necrosis,[4],0
same,"Liver Focal Necrosis, Minimal",[4],0
same,Liver Histiocytic Infiltration,[4],9
same,"Liver Histiocytic Infiltration, Mild",[4],5
same,"Liver Histiocytic Infiltration, Minimal",[4],4
same,"Liver Histiocytic Infiltration, Moderate",[4],0
same,Liver Vacuolation,[4],10
same,"Liver Vacuolation, Mild",[4],10
same,"Liver Vacuolation, Minimal",[4],0
same,"Lymph Node, Man. Histiocytic Infiltration",[4],9
same,"Lymph Node, Man. Histiocytic Infiltration, Mild",[4],1
same,"Lymph Node, Man. Histiocytic Infiltration, Minimal",[4],7
same,"Lymph Node, Man. Histiocytic Infiltration, Moderate",[4],1
same,"Lymph Node, Mes. Histiocytic Infiltration",[4],9
same,"Lymph Node, Mes. Histiocytic Infiltration, Mild",[4],4
same,"Lymph Node, Mes. Histiocytic Infiltration, Minimal",[4],5
same,"Lymph Node, Mes. Histiocytic Infiltration, Moderate",[4],0
same,Ovary Histiocytic Infiltration,[4],10
same,"Ovary Histiocytic Infiltration, Mild",[4],6
same,"Ovary Histiocytic Infiltration, Minimal",[4],0
same,"Ovary Histiocytic Infiltration, Moderate",[4],4
same,"Skin, Dermis Histiocytic Infiltration",[4],2
same,"Skin, Dermis Histiocytic Infiltration, Marked",[4],0
same,"Skin, Dermis Histiocytic Infiltration, Mild",[4],0
same,"Skin, Dermis Histiocytic Infiltration, Moderate",[4],2
same,"Skin, SQ Histiocytic Infiltration",[4],0
same,"Skin, SQ Histiocytic Infiltration, Mild",[4],0
